Source: US11072634B2, “Inhibitors of transglutaminases” (Zedira GmbH, priority 2016, dated 2021)
pIC50: −log10 of the molar value.

Columns and labels:
[1] = molecular target: T1, recombinant human tissue transglutaminase (rhTG2) (Homo sapiens, UniProt P21980); assay: Inhibition of rec. human tissue transglutaminase (fluorescence, Abz-APE(CAD-DNP)QEA-OH); format: biochemical
T1 construct: purchased Zedira 1022 (so in the source); T022)
T1 sequence (P21980 1-687): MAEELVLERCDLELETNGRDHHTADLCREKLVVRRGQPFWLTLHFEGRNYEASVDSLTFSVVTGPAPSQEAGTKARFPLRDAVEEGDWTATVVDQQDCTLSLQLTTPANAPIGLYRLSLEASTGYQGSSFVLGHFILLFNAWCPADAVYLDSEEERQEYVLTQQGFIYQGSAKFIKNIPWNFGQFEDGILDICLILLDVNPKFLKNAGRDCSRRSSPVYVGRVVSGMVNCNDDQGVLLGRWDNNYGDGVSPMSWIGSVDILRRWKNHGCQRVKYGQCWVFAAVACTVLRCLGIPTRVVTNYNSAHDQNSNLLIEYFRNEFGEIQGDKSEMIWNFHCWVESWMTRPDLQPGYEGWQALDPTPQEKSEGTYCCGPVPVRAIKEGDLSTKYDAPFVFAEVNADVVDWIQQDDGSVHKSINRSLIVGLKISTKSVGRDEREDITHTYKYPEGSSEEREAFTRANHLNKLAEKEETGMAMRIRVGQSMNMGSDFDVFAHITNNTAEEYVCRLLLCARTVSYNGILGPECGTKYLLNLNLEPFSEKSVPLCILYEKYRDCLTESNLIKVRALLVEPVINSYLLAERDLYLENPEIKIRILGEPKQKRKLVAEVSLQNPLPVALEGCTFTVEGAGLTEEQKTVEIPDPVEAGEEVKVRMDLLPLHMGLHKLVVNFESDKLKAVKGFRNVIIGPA
In short: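 His6-rhTG2 in a master mix (50 mM Tris-HCl pH 7.4, 7.5 mM CaCl2, 150 mM NaCl, 5 mM DTT, 13.4 mM glycine methylester, 50 μM Abz-APE(CAD-DNP)QEA-OH) was added to serially diluted inhibitor. Fluorescence (ex 313/em 418 nm) was followed at 37 °C for 20 min. IC50 came from the 10–20 min slope relative to the 2% DMSO control.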

[2] = tested on: Huh7 (human liver carcinoma cell line); assay: Metabolic activity, EZ4U-Assay; format: cell-based; conditions: highest concentration 1 mM
Protocol: (§1) The following cell lines are used for determination of cytotoxicity: • CaCo2 (human colon carcinoma cell line) • Huh7 (human liver carcinoma cell line).
(§2) Cells are cultivated in DMEM/10% FCS at 37° C. and 5% CO2 in a 96 well plate with an initial seeding density of 2×10^4 cells/well.
(§3) Transglutaminase inhibitors are added to the cells with final concentrations from 0.1 μM to 1 mM one hour after seeding. The different inhibitor dilutions are prepared in DMSO, resulting in a final concentration of 1% (v/v) DMSO in every well (2 μl inhibitor in 200 μl cell culture medium). Cycloheximide (2.5 μg/ml) and Camptothecin (0.2 μg/ml) are used as control compounds. All measurements are performed in triplicates.
(§4) Determination of metabolic activity using EZ4U-Assay (Biomedica, Cat. No. BI-5000).
(§5) After 48 h of incubation with inhibitors or controls, the tetrazolium substrate is added to the cells. Substrate turnover by the cells is measured over two hours at 450 nm (using 630 nm was reference wavelength).

[3] = tested on: CaCo2 (human colon carcinoma cell line); assay: Metabolic activity, EZ4U-Assay; format: cell-based; conditions: highest concentration 1 mM
Protocol: as §1, §2, §3, §4, §5

[4] = tested on: Huh7 (human liver carcinoma cell line); assay: Cell Proliferation ELISA, BrdU; format: cell-based; conditions: highest concentration 1 mM
Protocol: as §1, §2, §3
(§6) Determination of proliferation using Cell Proliferation ELISA, BrdU (Roche, Cat. No. 11647229001).
(§7) After 24 h of incubation with inhibitors or controls, BrdU is added to the cells. After further incubation for 18 h, the cells are fixed and cellular DNA becomes denatured. A monoclonal antibody (conjugated with peroxidase) raised against BrdU is added to the wells and binds to BrdU which is incorporated into the DNA. Substrate solution is added and absorbance at 450 nm is recorded. Further analysis is performed according to the manufacturer's protocol.

[5] = tested on: CaCo2 (human colon carcinoma cell line); assay: Cell Proliferation ELISA, BrdU; format: cell-based; conditions: highest concentration 1 mM
Protocol: as §1, §2, §3, §6, §7

Row | Structure (SMILES) | pIC50 ([1]; Table 1, TG2 inhibitors) | Cytotoxicity concentration (>10% deviation from negative control), EZ4U, Huh-7 [2] [mM] | Cytotoxicity concentration (>10% deviation from negative control), EZ4U, Caoo2 [3] [mM] | Cytotoxicity concentration (>10% deviation from negative control), BrdU, Huh-7 [4] [mM] | Cytotoxicity concentration (>10% deviation from negative control), BrdU, Caco2 [5] [mM] | pIC50 ([1]; Table 2, TG2 inhibitors)
1 | COC(=O)[C@H](CC(C)C)NC(=O)[C@@H]1CCCN1C(=O)[C@@H](NC(=O)[C@H](CCC(=O)C(N)=O)NC(=O)OCc1ccccc1)C(C)C [Compound E02, (S)-methyl 2-((S)-1-((S)-2-((S)-6-amino-2-(benzyloxycarbonylamino)-5,6-dioxo-hexanamido)-3-methylbutanoyl)pyrrolidine-2-carboxamido)-4-methylpentanoate] | 7.15 | >1 | >1 | >1 | >1 | –
2 | CC(=O)N[C@@H](CCC(=O)C(N)=O)C(=O)N1CCN(c2ccccc2Cl)CC1 [Compound E06, (S)-5-acetamido-6-(4-(2-chlorophenyl)piperazin-1-yl)-2,6-dioxohexanamide] | 7.00 | >1 | >1 | >1 | >1 | –
3 | CC(=O)N1CCC[C@H]1C(=O)N[C@@H](CCC(=O)C(N)=O)C(=O)N1CCN(c2ncccc2C)CC1 [Compound E07, (S)-1-acetyl-N—((S)-6-amino-1-(4-(3-methylpyridin-2-yl)piperazin-1-yl)-1,5,6-trioxohexan-2-yl)pyrrolidine-2-carboxamide] | 7.00 | >1 | >1 | >1 | >1 | –
4 | CCCCCNC(=O)C(=O)CC[C@H](NC(=O)[C@@H]1CCCN1C(C)=O)C(=O)Nc1cccn(CC(=O)NCC(CC)CC)c1=O [Compound E22, (S)-2-((S)-1-acetylpyrrolidine-2-carboxamido)-N1-(1-(2-(2-ethylbutylamino)-2-oxoethyl)-2-oxo-1,2-dihydropyridin-3-yl)-5-oxo-N6-pentylhexanediamide] | – | – | – | – | – | 7.07
